The values below come from ChEMBL document CHEMBL4627342, “Novel pyridone EP4 agonists featuring allylic alcohol ω-chains” (Bioorg Med Chem Lett, 2020).

What all share (format): functional, cell-based
The target of assay [1] is Prostaglandin E2 receptor EP2 subtype (Homo sapiens, UniProt P43116). The assay is described as follows: Agonist activity at human EP2 receptor expressed in HEK293 cells by calcium-5 dye based FLIPR assay.
The target of assay [2] is T1, Prostaglandin E2 receptor EP1 subtype (Homo sapiens, UniProt P34995).
T1 sequence (P34995 whole entry): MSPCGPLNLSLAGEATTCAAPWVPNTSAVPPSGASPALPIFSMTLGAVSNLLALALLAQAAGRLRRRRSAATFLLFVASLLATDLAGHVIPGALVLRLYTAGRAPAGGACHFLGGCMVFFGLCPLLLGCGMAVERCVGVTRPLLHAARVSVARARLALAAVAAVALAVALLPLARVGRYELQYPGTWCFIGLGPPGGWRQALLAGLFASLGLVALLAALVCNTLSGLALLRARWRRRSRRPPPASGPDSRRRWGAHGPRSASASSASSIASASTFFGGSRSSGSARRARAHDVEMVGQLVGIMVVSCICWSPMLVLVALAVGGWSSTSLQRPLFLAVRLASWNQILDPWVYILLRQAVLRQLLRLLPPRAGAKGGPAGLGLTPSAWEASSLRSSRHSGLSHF
The assay can be described thus: Agonist activity at human EP1 receptor expressed in HEK293 cells by calcium-5 dye based FLIPR assay.

Assay [3] concerns the target T2, Prostaglandin E2 receptor EP4 subtype (Homo sapiens, UniProt P35408). The assay can be described thus: Agonist activity at human EP4 receptor expressed in HEK293 cells by calcium-5 dye based FLIPR assay.
For assay [4], the target named is T2, Prostaglandin E2 receptor EP4 subtype. The assay is described as follows: Agonist activity at human EP4 receptor expressed in HEK293 cells by calcium-5 dye based FLIPR assay relative to control.
The target of assay [5] is T3, Prostaglandin E2 receptor EP3 subtype (Homo sapiens, UniProt P43115).
T3 sequence (P43115 whole entry): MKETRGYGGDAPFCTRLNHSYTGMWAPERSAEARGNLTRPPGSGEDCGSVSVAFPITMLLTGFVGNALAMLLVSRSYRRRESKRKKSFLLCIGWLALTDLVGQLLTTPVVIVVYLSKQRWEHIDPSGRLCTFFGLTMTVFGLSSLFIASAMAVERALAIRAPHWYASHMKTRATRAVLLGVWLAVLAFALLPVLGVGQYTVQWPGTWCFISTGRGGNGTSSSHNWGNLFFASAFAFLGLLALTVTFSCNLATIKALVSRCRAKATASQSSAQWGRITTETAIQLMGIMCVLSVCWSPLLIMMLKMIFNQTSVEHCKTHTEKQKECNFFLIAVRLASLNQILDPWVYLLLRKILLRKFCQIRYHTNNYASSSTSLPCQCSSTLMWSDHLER
The assay is described as follows: Agonist activity at human EP3 receptor expressed in HEK293 cells by calcium-5 dye based FLIPR assay.

T2 sequence (P35408 whole entry): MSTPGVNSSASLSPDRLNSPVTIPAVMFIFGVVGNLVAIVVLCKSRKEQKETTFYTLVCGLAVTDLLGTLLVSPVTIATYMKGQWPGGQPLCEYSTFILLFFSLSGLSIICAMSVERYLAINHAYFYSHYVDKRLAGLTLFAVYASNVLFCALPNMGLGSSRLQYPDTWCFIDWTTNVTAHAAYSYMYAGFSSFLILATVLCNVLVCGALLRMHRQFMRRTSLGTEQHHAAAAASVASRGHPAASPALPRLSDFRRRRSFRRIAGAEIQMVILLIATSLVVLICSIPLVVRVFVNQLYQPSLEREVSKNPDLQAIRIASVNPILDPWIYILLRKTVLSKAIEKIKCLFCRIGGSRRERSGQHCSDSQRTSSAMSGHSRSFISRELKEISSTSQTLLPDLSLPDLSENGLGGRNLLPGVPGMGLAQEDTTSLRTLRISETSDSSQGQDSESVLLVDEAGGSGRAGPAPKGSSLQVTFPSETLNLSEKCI
Chain of Prostaglandin E2 receptor EP2 subtype (P43116 whole entry): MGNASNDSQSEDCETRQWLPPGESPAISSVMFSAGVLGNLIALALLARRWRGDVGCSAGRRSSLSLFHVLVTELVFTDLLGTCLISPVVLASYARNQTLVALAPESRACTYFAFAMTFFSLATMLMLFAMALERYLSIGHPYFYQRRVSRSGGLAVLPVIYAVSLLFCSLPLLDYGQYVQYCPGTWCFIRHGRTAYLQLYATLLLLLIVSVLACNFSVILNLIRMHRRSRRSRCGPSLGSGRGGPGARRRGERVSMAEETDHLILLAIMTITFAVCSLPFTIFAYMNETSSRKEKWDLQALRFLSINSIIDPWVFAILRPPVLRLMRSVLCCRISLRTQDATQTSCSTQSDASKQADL

As to `CCCCCC(O)CCc1c(Cl)cc(Cl)c(=O)n1CCc1ccc(C(=O)O)cc1` (centres undefined), the EC50 was 1.5 µM in assay [1], greater than 10 µM in assay [2], 0.0049 µM in assay [3] and greater than 10 µM in assay [5]. Further, the Emax in assay [4] amounted to 138%.

With `CCCCCC(O)/C=C/c1c(Cl)cc(Cl)c(=O)n1CCc1ccc(C(=O)O)cc1` (racemic) [listing 1 of 2 here], the EC50 in assay [1] was greater than 10 µM; in assay [2], greater than 10 µM; in assay [3] it was 0.007 µM; in assay [5] it was greater than 10 µM.

In the case of `CCCCCC(O)CCc1cccc(=O)n1CCCCCCC(=O)O` (centres undefined), the EC50 is greater than 10 µM in assay [1], 2.35 µM in assay [2], 0.55 µM in assay [3] and 2.7 µM in assay [5]. Also, in assay [4], the Emax turned out to be 103%.

As for `CCCCCC(O)/C=C/c1c(Cl)cc(Cl)c(=O)n1CCc1ccc(C(=O)O)cc1` (stereo in doubt; 9) [listing 1 of 2 here], the Emax in assay [4] was 146%.

As to `CCCCCC(O)/C=C/c1c(Cl)cc(Cl)c(=O)n1CCc1ccc(C(=O)O)cc1` (racemic) [listing 2 of 2 here], the Emax in assay [4] is 129%.

On to `CCCCCC(O)/C=C/c1c(Cl)cc(Cl)c(=O)n1CCc1ccc(C(=O)O)cc1` (single isomer, unassigned; ent-9) [listing 1 of 2 here], for which the EC50 in assay [3] was found to be 0.06 µM.

Consider `CCCCCC(C)(O)/C=C/c1c(Cl)cc(Cl)c(=O)n1CCc1ccc(C(=O)O)cc1` (centres undefined), for which the EC50 is 4.7 µM in assay [1], greater than 10 µM in assay [2], 0.029 µM in assay [3] and greater than 10 µM in assay [5]. The Emax in assay [4] stood at 139%.

As for `CCCCCC(O)/C=C/c1c(Br)cc(Br)c(=O)n1CCCCCCC(=O)O` (centres undefined), the EC50 in assay [1] was greater than 10 µM; in assay [2], greater than 10 µM; in assay [3], 0.36 µM; in assay [5], greater than 10 µM. Further, the Emax in assay [4] was 99%.

For the molecule `CCCCCC(O)/C=C/c1c(Cl)cc(Cl)c(=O)n1CCCCCCC(=O)O` (centres undefined), the EC50 in assay [1] is greater than 10 µM; in assay [2], greater than 10 µM; in assay [3], 0.16 µM; in assay [5] it was greater than 10 µM. Further, the Emax in assay [4] is 123%.

Turning to `CCCCCC(O)/C=C/c1c(Cl)cc(Cl)c(=O)n1CCc1ccc(C(=O)O)cc1` (single isomer, unassigned; ent-9) [listing 2 of 2 here], the Emax in assay [4] was 136%.

Turning to `CCCCCC(O)/C=C/c1c(Cl)cc(Cl)c(=O)n1CCc1ccc(C(=O)O)cc1` (stereo in doubt; 9) [listing 2 of 2 here], the EC50 in assay [3] was 0.013 µM.
